The target of assay [1] is T1, Nuclear factor erythroid 2-related factor 2 (Mus musculus) (UniProt Q60795).
T1 sequence (whole entry): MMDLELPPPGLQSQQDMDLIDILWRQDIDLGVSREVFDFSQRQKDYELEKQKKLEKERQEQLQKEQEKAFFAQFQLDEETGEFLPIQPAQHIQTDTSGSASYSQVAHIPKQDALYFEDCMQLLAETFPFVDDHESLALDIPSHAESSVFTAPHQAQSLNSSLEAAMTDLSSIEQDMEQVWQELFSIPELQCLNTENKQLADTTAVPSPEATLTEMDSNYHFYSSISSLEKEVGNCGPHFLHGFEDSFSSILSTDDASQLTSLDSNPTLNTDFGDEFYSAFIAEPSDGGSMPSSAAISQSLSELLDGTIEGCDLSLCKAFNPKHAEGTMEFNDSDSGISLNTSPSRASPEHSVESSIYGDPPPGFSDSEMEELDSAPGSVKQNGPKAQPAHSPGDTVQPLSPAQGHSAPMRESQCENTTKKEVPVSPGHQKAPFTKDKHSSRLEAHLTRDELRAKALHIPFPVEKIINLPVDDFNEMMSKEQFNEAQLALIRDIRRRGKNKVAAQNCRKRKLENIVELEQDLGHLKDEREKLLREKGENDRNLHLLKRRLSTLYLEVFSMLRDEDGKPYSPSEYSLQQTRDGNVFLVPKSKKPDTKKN
As to the kind of experiment: Activation of Nrf2 pathway in mouse BV-2 cells assessed as fold increase in HO-1 level at 5 uM measured after 3 hrs by Western blot analysis. It counts as cell-based. To be noted: filed as activator. For orientation: In western blotting, separated proteins are transferred to a membrane and probed.

Assay [2] concerns the target T1, Nuclear factor erythroid 2-related factor 2 (Mus musculus). As to the kind of experiment: Activation of Nrf2 in mouse BV-2 cells assessed as increase in GCLM mRNA expression by measuring fold change at 5 uM incubated for 3 hrs by qRT-PCR analysis. It counts as cell-based. The note with it: filed as activator. A general note: In qPCR the cycle at which signal appears reflects the starting amount.

The target is the same in assay [3]. As to the kind of experiment: Activation of Nrf2 in mouse BV-2 cells assessed as increase in GCLC mRNA expression by measuring fold change at 5 uM measured for 3 hrs by qRT-PCR analysis. Format: cell-based. To be noted: filed as activator.
For assay [4], the target named is T2, Keap1/Nrf2 (Homo sapiens, UniProt Q14145+Q16236). As to the kind of experiment: Binding affinity to human Keap1-Nrf2 protein-protein interaction assessed as dissociation constant. Format: protein assay.
Assay [5] can be described thus: Induction of NQO1 expression in mouse Hepa1c1c7 cells. It counts as functional.
In assay [6] the target is Amyloid-beta precursor protein (Homo sapiens, UniProt P05067). As to the kind of experiment: Inhibition of amyloid beta 42 (unknown origin) self aggregation by Thioflavin T-based fluorometric assay.
The subject of another assay is BV-2. As to the kind of experiment: Antiinflammatory activity against mouse BV-2 cells assessed as reduction in LPS-induced NO production at 20 uM incubated for 24 hrs by Griess reagent based assay relative to control. Format: functional. Further details: scale not given: the % may be the effect or the level left. A general note: Griess reagent forms a coloured azo dye with nitrite.

Assay [7] addresses T2, Keap1/Nrf2. As to the kind of experiment: Binding affinity to human Keap1-Nrf2 protein-protein interaction assessed as inhibition constant incubated for 60 mins by fluorescent polarization assay.
The test system of another assay is HepG2-ARE-C8. As to the kind of experiment: Activation of Nrf2-ARE pathway in human HepG2-ARE-C8 cells measured for 24 hrs by ARE-luciferase assay. It counts as cell-based. The note with it: filed as activator.
The target in assay [8] is Keap1/Nrf2 (Homo sapiens, UniProt Q14145). As to the kind of experiment: Inhibition of human Keap1 KELCH domain (321 to 609 residues) expressed in Escherichia coli BL21 DE3 pLysS cells/Nrf2 (unknown origin) protein-protein interaction preincubated with Keap1 for 1 hr followed by Nrf2 addition and measured after 1 hr by fluorescence polarization assay.

pIC50, pKd, pKi: −log10 of the molar value.

T2 sequence (Q16236 whole entry): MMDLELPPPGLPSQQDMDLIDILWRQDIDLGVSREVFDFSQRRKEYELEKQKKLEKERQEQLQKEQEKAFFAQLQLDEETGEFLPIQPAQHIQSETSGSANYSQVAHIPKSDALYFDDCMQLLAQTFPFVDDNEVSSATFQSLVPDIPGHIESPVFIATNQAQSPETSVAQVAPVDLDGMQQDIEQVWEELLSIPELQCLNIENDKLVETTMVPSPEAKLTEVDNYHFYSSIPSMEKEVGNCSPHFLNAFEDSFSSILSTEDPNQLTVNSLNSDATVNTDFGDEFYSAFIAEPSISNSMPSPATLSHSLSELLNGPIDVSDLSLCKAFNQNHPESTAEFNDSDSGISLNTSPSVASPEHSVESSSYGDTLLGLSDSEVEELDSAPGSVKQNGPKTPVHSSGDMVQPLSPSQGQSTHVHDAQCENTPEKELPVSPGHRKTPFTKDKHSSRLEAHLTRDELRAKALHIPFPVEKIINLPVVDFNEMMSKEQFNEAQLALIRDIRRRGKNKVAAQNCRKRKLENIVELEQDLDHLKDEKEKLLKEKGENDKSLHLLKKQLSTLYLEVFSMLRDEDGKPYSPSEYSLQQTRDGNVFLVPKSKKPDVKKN
T2 sequence (Q14145 whole entry): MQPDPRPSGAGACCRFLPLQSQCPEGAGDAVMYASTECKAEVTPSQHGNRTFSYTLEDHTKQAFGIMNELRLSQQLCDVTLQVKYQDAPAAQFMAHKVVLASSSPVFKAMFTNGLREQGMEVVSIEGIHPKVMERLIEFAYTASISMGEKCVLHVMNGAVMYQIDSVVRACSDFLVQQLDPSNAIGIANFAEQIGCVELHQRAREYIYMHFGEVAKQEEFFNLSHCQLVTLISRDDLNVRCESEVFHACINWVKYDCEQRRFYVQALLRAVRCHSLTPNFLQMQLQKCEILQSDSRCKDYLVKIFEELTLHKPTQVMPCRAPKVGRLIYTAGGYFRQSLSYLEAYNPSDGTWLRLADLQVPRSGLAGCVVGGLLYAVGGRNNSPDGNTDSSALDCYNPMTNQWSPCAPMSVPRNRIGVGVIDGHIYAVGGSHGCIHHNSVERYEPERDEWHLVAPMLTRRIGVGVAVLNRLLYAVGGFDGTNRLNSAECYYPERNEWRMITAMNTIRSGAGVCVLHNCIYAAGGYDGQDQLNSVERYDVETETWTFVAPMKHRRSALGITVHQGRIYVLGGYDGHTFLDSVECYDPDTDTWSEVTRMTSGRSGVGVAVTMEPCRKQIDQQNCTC
Sequence of Amyloid-beta precursor protein (P05067 whole entry): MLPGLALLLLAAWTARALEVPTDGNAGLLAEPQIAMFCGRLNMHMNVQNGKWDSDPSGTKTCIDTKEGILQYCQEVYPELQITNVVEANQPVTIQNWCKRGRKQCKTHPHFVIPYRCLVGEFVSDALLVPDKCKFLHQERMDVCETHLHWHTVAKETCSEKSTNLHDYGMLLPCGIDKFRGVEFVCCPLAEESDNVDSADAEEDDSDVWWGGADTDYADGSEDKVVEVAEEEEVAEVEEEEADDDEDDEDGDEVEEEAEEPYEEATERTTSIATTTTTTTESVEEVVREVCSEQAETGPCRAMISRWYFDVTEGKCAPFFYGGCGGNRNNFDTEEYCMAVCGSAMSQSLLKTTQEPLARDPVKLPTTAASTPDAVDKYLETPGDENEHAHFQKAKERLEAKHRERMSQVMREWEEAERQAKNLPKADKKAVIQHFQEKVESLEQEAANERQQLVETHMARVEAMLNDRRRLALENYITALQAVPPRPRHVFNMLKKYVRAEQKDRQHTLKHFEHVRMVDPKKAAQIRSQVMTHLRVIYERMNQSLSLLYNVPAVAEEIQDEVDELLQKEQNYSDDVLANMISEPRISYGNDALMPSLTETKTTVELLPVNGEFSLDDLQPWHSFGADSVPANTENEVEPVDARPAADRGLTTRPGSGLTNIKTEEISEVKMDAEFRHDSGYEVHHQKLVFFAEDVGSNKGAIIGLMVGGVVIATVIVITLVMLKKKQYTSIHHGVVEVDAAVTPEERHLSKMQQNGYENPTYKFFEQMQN
Sequence of Keap1/Nrf2 (Homo sapiens, UniProt Q14145) (Q16236 whole entry, the tested form may be a part): as the sequence (Q16236 whole entry) above
Sequence of Keap1/Nrf2 (Homo sapiens, UniProt Q14145) (Q14145 whole entry, the tested form may be a part): as the sequence (Q14145 whole entry) above

Turning to `CC(=O)O[C@H]1CC(C)(C)C(=C=C/C(C)=C/C=C/C(C)=C/C=C/C=C(C)/C=C/C=C(\C)C(=O)C[C@@]23O[C@]2(C)C[C@@H](O)CC3(C)C)[C@](C)(O)C1`, the fold change (FC) was 2.02 in assay [1], 2.39 in assay [2] and 2.39 in assay [3]. Broadly, the pKd is the Kd on a negative log10 scale, so that one unit is a factor of ten. For `[H]/N=C(\N/C(=N/[H])NCCCCCCNC(=N)NC(=N)Nc1ccc(Cl)cc1)Nc1ccc(Cl)cc1` [CHLORHEXIDINE], the negative logarithm of the Kd (pKd) on Keap1/Nrf2 [4] was more than 4.52. The compound `O=[N+]([O-])c1ccc(Sc2nnc(COc3ccccc3)n2-c2ccccc2)nc1` had a CD in assay [5] of 2.5 µM.

`Nc1ccc(Sc2nnc(COc3ccccc3)n2-c2ccccc2)nc1` registered a CD in assay [5] of 2.5 µM. In the case of `CC1(C)CC[C@]2(C(=O)O)CC[C@]3(C)C(C(=O)C=C4[C@@]5(C)C=CC(=O)C(C)(C)[C@@H]5CC[C@]43C)[C@@H]2C1` (some centres undefined), the CD in assay [5] was found to be 0.28 µM.

Consider `COC(=O)[C@]12CCC(C)(C)C[C@H]1C1C(=O)C=C3[C@@]4(C)C=C(C(=O)O)C(=O)C(C)(C)[C@@H]4CC[C@@]3(C)[C@]1(C)CC2` (some centres undefined), for which the CD in assay [5] turned out to be 0.018 µM. As to `O=[N+]([O-])c1ccc(Sc2nnc(Cc3ccccc3)n2-c2ccccc2)nc1`, in assay [5], the CD stood at 0.3 µM.

Take `O=[N+]([O-])c1ccc(Sc2nnc(COc3ccccc3)[nH]2)nc1`: in [5], the CD came out at 7.5 µM. On the same count and under the same terms, to `CC1(C)CC[C@]2(C#N)CC[C@]3(C)C(C(=O)C=C4[C@@]5(C)C=C(C#N)C(=O)C(C)(C)[C@@H]5CC[C@]43C)[C@@H]2C1` (some centres undefined) belongs 0.00027 µM. One may read the pIC50 as the negative decadic logarithm of the IC50, by convention in mol/L. `C=CCSC(=O)/C=C/c1ccc(O)c(O)c1` had a pIC50 in assay [6] of 4.90. On to `COc1ccccc1S(=O)(=O)/C=C/c1ccccc1Cl`, for which the Activity in the assay with BV-2 is on record as 15.2%.

A word on the pKi: it is the negative decadic logarithm of the Ki, by convention in mol/L. With `O=C(NCC1CCCO1)C1CCC([N+](=O)[O-])S1` (centres undefined), the negative logarithm of the Ki (pKi) on Keap1/Nrf2 [7] is 5.21. In the case of `COc1ccccc1S(=O)(=O)/C=C/c1ccc(Cl)cc1`, the Activity in the assay on BV-2 amounted to 31.5%. Take `COc1ccccc1S(=O)(=O)/C=C/c1cccc(Cl)c1`: the Activity with BV-2 was determined as 32.1%.

The compound `CNC(=O)[C@]12CCC(C)(C)C[C@H]1C1C(=O)C=C3[C@@]4(C)C=C(C#N)C(=O)C(C)(C)[C@@H]4CC[C@@]3(C)[C@]1(C)CC2` (some centres undefined) yielded a CD in assay [5] of 0.001 µM.

For the compound `O=[N+]([O-])c1ccc(Sc2nnc(COc3ccccc3)n2-c2ccccc2)cc1`, the CD in assay [5] is 10 µM. Still for that read-out and setting: to `COC(=O)[C@]12CCC(C)(C)C[C@H]1C1C(=O)C=C3[C@@]4(C)C=C(C#N)C(=O)C(C)(C)[C@@H]4CC[C@@]3(C)[C@]1(C)CC2` (some centres undefined) belongs 0.001 µM.

On to `COc1ccccc1S(=O)(=O)/C=C/c1ccccc1F`, for which the Activity in the assay with BV-2 is recorded as 24%. On the same count and under the same terms, to `COc1ccccc1S(=O)(=O)/C=C/c1ccccc1C(F)(F)F` belongs 29.9%. `CC1(C)CC[C@]2(C(=O)O)CC[C@]3(C)C(C(=O)C=C4[C@@]5(C)C=C(C(=O)O)C(=O)C(C)(C)[C@@H]5CC[C@]43C)[C@@H]2C1` (some centres undefined): the CD in assay [5] worked out at 0.22 µM.

`COc1ccc(S(=O)(=O)Nc2ccc(N(CC(N)=O)S(=O)(=O)c3ccc(OC)cc3)c3ccccc23)cc1` registered an Activity in the assay on HepG2-ARE-C8 of 1.8 nM. In addition, the negative logarithm of the IC50 (pIC50) against Keap1/Nrf2 [8] was 7.59.

Values taken from ChEMBL document CHEMBL5528011, “Recent progress and applications of small molecule inhibitors of Keap1-Nrf2 axis for neurodegenerative diseases” (Eur J Med Chem, 2024).
